Measurements taken from publication PMC10993126, “Capture of endogenous lipids in peptidiscs and effect on protein stability and activity” (iScience, 2024).

B1: His6-tagged MsbA (natural protein, UniProt P60752 1-582, looked up)
chain: MHNDKDLSTWQTFRRLWPTIAPFKAGLIVAGVALILNAASDTFMLSLLKPLLDDGFGKTDRSVLVWMPLVVIGLMILRGITSYVSSYCISWVSGKVVMTMRRRLFGHMMGMPVSFFDKQSTGTLLSRITYDSEQVASSSSGALITVVREGASIIGLFIMMFYYSWQLSIILIVLAPIVSIAIRVVSKRFRNISKNMQNTMGQVTTSAEQMLKGHKEVLIFGGQEVETKRFDKVSNRMRLQGMKMVSASSISDPIIQLIASLALAFVLYAASFPSVMDSLTAGTITVVFSSMIALMRPLKSLTNVNAQFQRGMAACQTLFTILDSEQEKDEGKRVIERATGDVEFRNVTFTYPGRDVPALRNINLKIPAGKTVALVGRSGSGKSTIASLITRFYDIDEGEILMDGHDLREYTLASLRNQVALVSQNVHLFNDTVANNIAYARTEQYSREQIEEAARMAYAMDFINKMDNGLDTVIGENGVLLSGGQRQRIAIARALLRDSPILILDEATSALDTESERAIQAALDELQKNRTSLVIAHRLSTIEKADEIVVVEDGVIVERGTHNDLLEHRGVYAQLHKMQFGQ
notes: The same protein was prepared with different amounts of endogenous lipid (DDC, DLW, DHW in peptidisc; DDM in detergent); also called DDC-MsbA; DLW-MsbA; source: E. coli BL21(DE3), membranes solubilized with DDM, purified (Ni-NTA), reconstituted in peptidiscs or kept in DDM

Legend:
[1] = system: T1, SecYEG (HD-SecYEG; PD-SecYEG-CL); test: CL added before peptidisc reconstitution; SecA ATPase by Malachite green; SecA binding by clear-native PAGE; assay type: biochemical, Escherichia coli; details: 20:1 lipid to SecYEG molar ratio; with SecA; 1 mM ATP, 10 mM MgCl2, pH 8.8, 37°C; lipid activator
T1 construct: gene secY; read out with SecA; with Protein translocase subunit SecA
T1 sequence (P0AG96 whole entry): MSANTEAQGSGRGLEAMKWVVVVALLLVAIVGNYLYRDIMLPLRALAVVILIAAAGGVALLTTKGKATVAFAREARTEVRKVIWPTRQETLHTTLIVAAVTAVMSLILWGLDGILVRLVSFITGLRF
T1 sequence (P0AGA2 whole entry, further chain): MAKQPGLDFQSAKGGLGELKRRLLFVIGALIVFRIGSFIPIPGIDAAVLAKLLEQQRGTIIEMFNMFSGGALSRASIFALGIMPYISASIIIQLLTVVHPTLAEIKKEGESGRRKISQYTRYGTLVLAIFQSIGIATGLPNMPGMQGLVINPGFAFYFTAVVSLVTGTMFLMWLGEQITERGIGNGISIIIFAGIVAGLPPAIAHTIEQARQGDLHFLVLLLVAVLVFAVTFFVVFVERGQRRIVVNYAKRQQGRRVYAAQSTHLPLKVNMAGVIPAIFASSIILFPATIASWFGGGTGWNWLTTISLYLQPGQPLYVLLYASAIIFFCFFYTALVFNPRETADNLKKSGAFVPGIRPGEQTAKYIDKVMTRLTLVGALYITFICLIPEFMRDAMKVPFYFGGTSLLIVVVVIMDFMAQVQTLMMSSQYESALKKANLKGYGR
T1 sequence (P10408 whole entry, further chain): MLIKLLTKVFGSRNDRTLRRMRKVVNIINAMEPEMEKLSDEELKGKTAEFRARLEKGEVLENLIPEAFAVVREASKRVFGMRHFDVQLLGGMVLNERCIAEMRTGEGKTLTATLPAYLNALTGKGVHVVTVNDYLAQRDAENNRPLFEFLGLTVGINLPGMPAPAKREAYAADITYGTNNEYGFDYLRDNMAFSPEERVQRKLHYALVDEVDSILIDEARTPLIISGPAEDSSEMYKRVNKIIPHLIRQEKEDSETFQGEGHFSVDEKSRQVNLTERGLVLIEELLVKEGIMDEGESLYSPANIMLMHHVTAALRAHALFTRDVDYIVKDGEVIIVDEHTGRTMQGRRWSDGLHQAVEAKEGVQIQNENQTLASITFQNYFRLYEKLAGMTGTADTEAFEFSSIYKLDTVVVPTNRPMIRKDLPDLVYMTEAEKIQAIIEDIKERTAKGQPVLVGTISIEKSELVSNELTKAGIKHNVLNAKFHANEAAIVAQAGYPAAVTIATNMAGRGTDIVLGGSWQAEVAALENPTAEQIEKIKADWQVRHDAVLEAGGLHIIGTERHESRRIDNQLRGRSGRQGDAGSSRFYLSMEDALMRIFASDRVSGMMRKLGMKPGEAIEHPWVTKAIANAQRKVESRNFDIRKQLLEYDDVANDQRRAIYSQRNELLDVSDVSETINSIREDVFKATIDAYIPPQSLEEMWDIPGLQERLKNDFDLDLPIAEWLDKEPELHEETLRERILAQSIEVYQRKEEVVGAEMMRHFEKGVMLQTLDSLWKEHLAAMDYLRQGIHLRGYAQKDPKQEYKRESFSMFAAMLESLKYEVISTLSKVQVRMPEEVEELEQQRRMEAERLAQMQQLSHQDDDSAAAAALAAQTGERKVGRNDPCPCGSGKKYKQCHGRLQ
T1 sequence (P0AG99 whole entry, further chain): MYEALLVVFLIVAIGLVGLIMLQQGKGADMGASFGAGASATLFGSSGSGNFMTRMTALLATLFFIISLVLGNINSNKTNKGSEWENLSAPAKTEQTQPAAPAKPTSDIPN

[2] = target: the molecule itself; test: native gel or EMSA; 5-13% native PAGE with Coomassie staining of the DDM-MsbA and peptidisc-MsbA preparations (DDC, DLW, DHW)

| Molecule | fold increase in SecA ATPase activity [1] | stoichiometry N [2] |
| --- | --- | --- |
| CCCCCCCC/C=C\CCCCCCCC(=O)O[C@H](COC(=O)CCCCCCCCCCCCCCC)COP(=O)(O)OCC(O)COP(=O)(O)OC[C@@H](COC(=O)CCCCCCCCCCCCCCC)OC(=O)CCCCCCC/C=C\CCCCCCCC (some centres unmarked) [CL, 1',3'-bis[1-palmitoyl-2-oleoyl-sn-glycero-3-phospho]-glycerol] | ~ 4 fold |  |
| B1 |  | 2 |
